Source: patent US3962317A, “D-3,6-Diaminohexanoic acid 2-(carboxymethyl)-2-methylhydrazide, process of preparing and intermediates of said process” (priority 1974, dated 1976)
In brackets after ≈: the same amount, converted by molar mass.

What was measured:
[1] = tested on: standard laboratory microorganisms; experiment: Standard agar well diffusion assay against a variety of standard laboratory microorganisms; assay type: cell-based
[2] = tested on: Trichophyton mentagrophytes E11; experiment: Zone of inhibition, standard agar well diffusion assay; assay type: cell-based
Procedure: (§1) In this assay, the minimal inhibitory concentration (MIC) was determined by using twofold dilutions of the compound in nutrient agar. One ml. of each dilution was placed in a sterile Petri dish; 9 ml. of nutrient agar was added to each dish. Five hour cultures of the indicated organism in Trypticase Soy Broth were diluted 10^^-2 in nutrient broth. This dilution of each culture was transferred to the surface of the plates by using a Steers replicating device. […] The MIC of D-3,6-diaminohexanoic acid 2-(carboxymethyl)-2 -methylhydrazide against the indicated organisms are set forth in Table I below.
(§2) In another representative operation, the standard agar well diffusion assay was repeated with D-3,6-diaminohexanoic acid 2-(carboxymethyl)-2-methylhydrazide except that after incubation the zone of inhibition against the indicated organism is millimeters was determined.

[3] = tested on: Enterobacter aerogenes 75; experiment: as above; assay type: cell-based
Procedure: as §1, §2

Candida albicans E 83 = experiment: as above; assay type: cell-based
Procedure: as §1, §2

[4] = tested on: Staphylococcus aureus Rose ATCC 14154; experiment: as above; assay type: cell-based
Procedure: as §1, §2

[5] = tested on: Microsporum canis ATCC 10214; experiment: as above; assay type: cell-based
Procedure: as §1, §2

[6] = tested on: Mycobacterium smegmatis ATCC 606; experiment: as above; assay type: cell-based
Procedure: as §1, §2

[7] = tested on: Pseudomonas aeruginosa ATCC 10145; experiment: as above; assay type: cell-based
Procedure: as §1, §2

[8] = tested on: Trichophyton tonsurans NIH 662; experiment: as above; assay type: cell-based
Procedure: as §1, §2

[9] = tested on: Salmonella typhosa ATCC 6539; experiment: as above; assay type: cell-based
Procedure: as §1, §2

Klebsiella pneumoniae AD [10] = experiment: as above; assay type: cell-based
Procedure: as §1, §2

[11] = tested on: Proteus vulgaris ATCC 9484; experiment: as above; assay type: cell-based
Procedure: as §1, §2

Escherichia coli 311 [12] = experiment: as above; assay type: cell-based
Procedure: as §1, §2

[13] = tested on: Cryptococcus neoformans E 183; experiment: as above; assay type: cell-based
Procedure: as §1, §2

[14] = tested on: Salmonella typhimurium K-1972; experiment: MIC, agar dilution (called standard agar well diffusion assay); assay type: cell-based; conditions: Salmonella enterica, nutrient agar, 37°C, 24 hours
Procedure: as §1

[15] = tested on: Escherichia coli K-1972-1; experiment: as above; assay type: cell-based; conditions: K19721, nutrient agar, 37°C, 24 hours
Procedure: as §1

[16] = tested on: Proteus mirabilis K-1972-16; experiment: as above; assay type: cell-based; conditions: K197216, nutrient agar, 37°C, 24 hours
Procedure: as §1

Serratia marcescens K132 = experiment: as above; assay type: cell-based; conditions: nutrient agar, 37°C, 24 hours
Procedure: as §1

[17] = tested on: Herellea vaginicola Washington 885-863; experiment: as above; assay type: cell-based; conditions: nutrient agar, 37°C, 24 hours
Procedure: as §1

[18] = tested on: Staphylococcus aureus Morton No. 1169; experiment: as above; assay type: cell-based; conditions: nutrient agar, 37°C, 24 hours
Procedure: as §1

[19] = tested on: Herellea vaginicola Hughes; experiment: as above; assay type: cell-based; conditions: nutrient agar, 37°C, 24 hours
Procedure: as §1

[20] = tested on: Escherichia coli K-1972-2; experiment: as above; assay type: cell-based; conditions: K19722, nutrient agar, 37°C, 24 hours
Procedure: as §1

[21] = tested on: Enterobacter sp. K-1972-1; experiment: as above; assay type: cell-based; conditions: SP.K19721, nutrient agar, 37°C, 24 hours
Procedure: as §1

[22] = tested on: Pseudomonas aeruginosa PA7; experiment: as above; assay type: cell-based; conditions: nutrient agar, 37°C, 24 hours
Procedure: as §1

[23] = tested on: Staphylococcus aureus Jackson No. 4; experiment: as above; assay type: cell-based; conditions: nutrient agar, 37°C, 24 hours
Procedure: as §1

Proteus vulgaris K-1972 = experiment: as above; assay type: cell-based; conditions: K1972, nutrient agar, 37°C, 24 hours
Procedure: as §1

[24] = tested on: Proteus mirabilis No. 4361; experiment: as above; assay type: cell-based; conditions: nutrient agar, 37°C, 24 hours
Procedure: as §1

[25] = tested on: Pseudomonas aeruginosa 12-4-4; experiment: as above; assay type: cell-based; conditions: 1244, nutrient agar, 37°C, 24 hours
Procedure: as §1

[26] = tested on: Salmonella enteritidis K-1972; experiment: as above; assay type: cell-based; conditions: Salmonella enterica, nutrient agar, 37°C, 24 hours
Procedure: as §1

[27] = tested on: Klebsiella pneumoniae K-1972-2; experiment: as above; assay type: cell-based; conditions: K19722, nutrient agar, 37°C, 24 hours
Procedure: as §1

[28] = tested on: Enterococcus (S. faecalis) Isenberg; experiment: as above; assay type: cell-based; conditions: nutrient agar, 37°C, 24 hours
Procedure: as §1

[29] = tested on: Shigella flexneri (5) Citarella; experiment: as above; assay type: cell-based; conditions: nutrient agar, 37°C, 24 hours
Procedure: as §1

Klebsiella pneumoniae AD [30] = experiment: as above; assay type: cell-based; conditions: nutrient agar, 37°C, 24 hours
Procedure: as §1

Escherichia coli No. 311 = experiment: as above; assay type: cell-based; conditions: nutrient agar, 37°C, 24 hours
Procedure: as §1

[31] = tested on: Proteus mirabilis K-1972-12; experiment: as above; assay type: cell-based; conditions: K197212, nutrient agar, 37°C, 24 hours
Procedure: as §1

[32] = tested on: Serratia marcescens Finland; experiment: as above; assay type: cell-based; conditions: nutrient agar, 37°C, 24 hours
Procedure: as §1

[33] = tested on: Shigella flexneri (2a) RB; experiment: as above; assay type: cell-based; conditions: nutrient agar, 37°C, 24 hours
Procedure: as §1

Proteus mirabilis 4671 = experiment: Systemic lethal infection in mice, Proteus mirabilis 4671; assay type: in vivo, Charles River CD1 female mice; conditions: for Alive/Total Mice Tested 7 Days After Infection: 1 day prior to and immediately after infection
Procedure: (§3) The infections were administered to the mice as follows:
Proteus mirabilis 4671: intraperitoneal injection of a lethal dose consisting of 0.5 ml. of a 10^^-1.6 trypticase soy dilution of a 5 hour trypticase soy broth culture.
(§4) The D-3,6-diaminohexanoic acid 2-(carboxymethyl)-2-methylhydrazide was administered as follows:
Proteus mirabilis 4671: 0.5 ml. dose suspended in 0.2% aqueous agar was administered to groups of Charles River CD1 female mice, weighing 18-22 gm., 1 day prior to infection and then in a second dose immediately after infection at the levels indicated in Table III below.

Escherichia coli 311 [34] = experiment: Systemic lethal infection in mice, Escherichia coli 311; assay type: in vivo, Charles River CD1 female mice; conditions: for Alive/Total Mice Tested 7 Days After Infection: immediately after infection
Procedure: as §3
Escherichia coli 311: intraperitoneal infection of a lethal dose consisting of 0.5 ml. of a 10^^-3 trypticase soy dilution of a 5 hour trypticase soy broth culture.
as §4
Escherichia coli 311: 0.5 ml. dose suspended in 0.2% aqueous agar was administered to groups of Charles River CD1 female mice, weighing 18-22 gm., immediately after infection at the levels indicated in Table III below.

Structure (SMILES): CN(CC(=O)O)NC(=O)C[C@H](N)CCCN [D-3,6-diaminohexanoic acid 2-(carboxymethyl)-2-methylhydrazide]
- antibacterial and antifungal activity in vitro [1]: broad-spectrum antibacterial and antifungal activity in vitro
- Zone of Inhibition [2]: 100 mm.
- Zone of Inhibition [3]: 50 mm.
- Zone of Inhibition (Candida albicans E 83): 50 mm.
- Zone of Inhibition [4]: 100 mm.
- Zone of Inhibition [5]: 250 mm.
- Zone of Inhibition [6]: 100 mm.
- Zone of Inhibition [7]: 50 mm.
- Zone of Inhibition [8]: 25 mm.
- Zone of Inhibition [9]: 25 mm.
- Zone of Inhibition (Klebsiella pneumoniae AD [10]): 10 mm.
- Zone of Inhibition [11]: 25 mm.
- Zone of Inhibition (Escherichia coli 311 [12]): 25 mm.
- Zone of Inhibition [13]: 10 mm.
- MIC [14]: 32 µg/mL (≈ 138 µM)
- MIC [15]: 16 µg/mL (≈ 68.9 µM)
- MIC [16]: 64 µg/mL (≈ 276 µM)
- MIC (Serratia marcescens K132): 32 µg/mL (≈ 138 µM)
- MIC [17]: 32 µg/mL (≈ 138 µM)
- MIC [18]: 32 µg/mL (≈ 138 µM)
- MIC [19]: 32 µg/mL (≈ 138 µM)
- MIC [20]: 16 µg/mL (≈ 68.9 µM)
- MIC [21]: 32 µg/mL (≈ 138 µM)
- MIC [22]: 64 µg/mL (≈ 276 µM)
- MIC [23]: 64 µg/mL (≈ 276 µM)
- MIC (Proteus vulgaris K-1972): 64 µg/mL (≈ 276 µM)
- MIC [24]: 64 µg/mL (≈ 276 µM)
- MIC [25]: 64 µg/mL (≈ 276 µM)
- MIC [26]: 32 µg/mL (≈ 138 µM)
- MIC [27]: 32 µg/mL (≈ 138 µM)
- MIC [28]: > 128 µg/mL
- MIC [29]: 64 µg/mL (≈ 276 µM)
- MIC (Klebsiella pneumoniae AD [30]): 4 µg/mL (≈ 17.2 µM)
- MIC (Escherichia coli No. 311): 16 µg/mL (≈ 68.9 µM)
- MIC [31]: 64 µg/mL (≈ 276 µM)
- MIC [32]: 64 µg/mL (≈ 276 µM)
- MIC [33]: 4 µg/mL (≈ 17.2 µM)
- Alive/Total Mice Tested 7 Days After Infection (Proteus mirabilis 4671; 64 mg./kg. subcutaneous): 5/5
- Alive/Total Mice Tested 7 Days After Infection (Proteus mirabilis 4671; 128 mg./kg. subcutaneous): 5/5
- Alive/Total Mice Tested 7 Days After Infection (Proteus mirabilis 4671; 256 mg./kg. subcutaneous): 5/5
- in vivo activity against systemic lethal infection (Proteus mirabilis 4671; Proteus mirabilis infection in mice): controlled systemic lethal infections
- Alive/Total Mice Tested 7 Days After Infection (Escherichia coli 311 [34]; 4 mg./kg. subcutaneous): 0/5
- Alive/Total Mice Tested 7 Days After Infection (Escherichia coli 311 [34]; 8 mg./kg. subcutaneous): 0/5
- Alive/Total Mice Tested 7 Days After Infection (Escherichia coli 311 [34]; 16 mg./kg. subcutaneous): 0/5
- Alive/Total Mice Tested 7 Days After Infection (Escherichia coli 311 [34]; 32 mg./kg. subcutaneous): 3/5
- Alive/Total Mice Tested 7 Days After Infection (Escherichia coli 311 [34]; 64 mg./kg. subcutaneous): 5/5
- in vivo activity against systemic lethal infection (Escherichia coli 311 [34]; Escherichia coli infection in mice): controlled systemic lethal infections
